{
  "source": "ChEMBL document CHEMBL1135350",
  "about": "“Synthesis of an arabinofuranosyl disaccharide photoaffinity probe for arabinosyltransferase activity in Mycobacterium tuberculosis” (Bioorg Med Chem Lett, 2002)",
  "system": "Mycobacterium tuberculosis",
  "experiment": "Enzyme kinetic constant of compound for Arabinosyltransferase in Mycobacterium tuberculosis was determined",
  "data": [
    {"compound": "[N-]=[N+]=Nc1cccc2c(S(=O)(=O)NCCOC3O[C@H](COC4O[C@H](CO)[C@@H](O)[C@H]4O)[C@@H](O)[C@H]3O)cccc12", "note": "(some centres not stated)", "values": [
      {"measurement": "Km", "value": 3.07, "unit": "mM"},
      {"measurement": "Vmax (pM min-1 mg-1)", "value": 4.26}
    ]}
  ]
}
